These results are taken from patent publication US6927230B2, “Triazole derivatives” (Fujisawa Pharmaceutical Co., Ltd., priority 2001, dated 2005).

Each structure is given as a SMILES string. pIC50: −log10 of the molar value. Where two headings read alike, the source gives them in different places. Some results are limits rather than exact numbers.

For one data set, the target named is T1, COX-II (Homo sapiens, UniProt P35354).
T1 construct: lipopolysaccharide for 24 hr at 37 C for induction of COX-2; from tissue; host or cells: fresh heparinized human whole blood from volunteers, LPS-stimulated for 24 hr
T1 sequence (P35354 18-604): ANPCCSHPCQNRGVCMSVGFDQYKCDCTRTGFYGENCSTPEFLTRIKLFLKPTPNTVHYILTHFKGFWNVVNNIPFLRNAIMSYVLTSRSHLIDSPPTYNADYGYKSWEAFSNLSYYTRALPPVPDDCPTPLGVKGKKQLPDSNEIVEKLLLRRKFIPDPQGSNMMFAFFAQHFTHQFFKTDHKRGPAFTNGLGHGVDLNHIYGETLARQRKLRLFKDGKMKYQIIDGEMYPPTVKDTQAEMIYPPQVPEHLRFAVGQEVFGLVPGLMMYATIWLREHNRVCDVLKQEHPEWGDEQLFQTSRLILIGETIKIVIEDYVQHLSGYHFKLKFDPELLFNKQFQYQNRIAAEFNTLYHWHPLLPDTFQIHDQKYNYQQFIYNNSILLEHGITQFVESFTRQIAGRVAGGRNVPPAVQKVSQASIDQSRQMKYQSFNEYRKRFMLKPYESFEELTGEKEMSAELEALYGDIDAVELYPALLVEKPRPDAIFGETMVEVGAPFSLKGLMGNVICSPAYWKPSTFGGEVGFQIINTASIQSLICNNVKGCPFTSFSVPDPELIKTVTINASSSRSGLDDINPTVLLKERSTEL
Kind of data set: Whole blood assay for COX-II (LPS-induced PGE2 production). In kind it is cell-based. As to the method:
Fresh blood was collected in heparinized tubes by syringe from volunteers with consent. The subjects had no apparent inflammatory conditions and had not taken any medication for at least 7 days prior to blood collection. 500 μl aliquots of human whole blood were incubated with either 2 μl DMSO vehicle or 2 μl of a test compound at final concentrations for 15 min at 37 C This was followed by incubation of the blood with 10 μl of 5 mg/ml lipopolysaccharide for 24 hr at 37 C for induction of COX-2. Appropriate PBS treatments (no LPS) were used as blanks. At the end of the incubation, the blood was centrifuged at 6000×g for 5 min at 4 C to obtain plasma. A 100 μl aliquot of plasma was mixed with 400 μl methanol for protein precipitation. The supernatant was obtained by centrifuging at 6000×g for 5 min at 4 C and was assayed for PGE2 using a radioimmunoassay kit after conversion of PGE2 to its methyl oximate derivative according to the manufacturer's procedure. For a test compound, the results were expressed as percent inhibition of PGE2 production relative to control incubations containing DMSO vehicle. The data were analyzed by that a test compound at the indicated concentrations was changed log value and was applied simple linear regression. IC50 value was calculated by least squares method.

The next data set has as its system platelet aggregation. Nature of the data set: Inhibiting activity on aggregation of platelet (collagen-induced, platelet-rich plasma). In kind it is cell-based. The conditions noted are these: human platelet-rich plasma, collagen 0.5 μg/mL as agonist; read-out: IC50 (inhibition of platelet aggregation). As to the method:
Blood from healthy human volunteers was collected into plastic vessels containing 3.8% sodium citrate (1/10 volume). The subject had no taken any compounds for at least seven days prior to blood collection. Platelet-rich plasma was obtained from the supernatant fraction of blood after centrifugation at 1200 r.p.m. for 10 min. Platelet-poor plasma was obtained by centrifugation of the remaining blood at 3000 r.p.m. for 10 min.
Platelet aggregation was measured according to the turbidimetric method with an aggregometer (Hema Tracer). In the cuvette, platelet-rich plasma was pre-incubated for 2 min at 37 C after the addition of compounds or vehicle. In order to quantify the inhibitory effects of each compound, the maximum increase in light transmission was determined from the aggregation curve for 7 min after the addition of agonist. We used collagen as agonist of platelet aggregation in this study. The final concentration of collagen was 0.5 μg/mL. The effect of each compound was expressed as percentage inhibition agonist-induced platelet aggregation compared with vehicle treatment. Data are presented as the mean±S.E.M. for six experiments. The IC50 value was obtained by linear regression, and is expressed as the compound concentration required to produce 50% inhibition of agonist-induced platelet aggregation in comparison to vehicle treatment.

In the next data set the target is T2, COX-I (Homo sapiens, UniProt P23219).
T2 construct: Fresh blood was collected by syringe without anticoagulants from volunteers with consent; from tissue; host or cells: fresh human whole blood from volunteers, no anticoagulant, allowed to clot
Nature of the data set: Whole blood assay for COX-I (TXB2 production). It counts as cell-based. As to the method:
Fresh blood was collected by syringe without anticoagulants from volunteers with consent. The subjects had no apparent inflammatory conditions and had not taken any medication for at least 7 days prior to blood collection. 500 μl aliquots of human whole blood were immediately incubated with 2 μl of either DMSO vehicle or a test compound at final concentrations for 1 hr at 37 C. to allow the blood to clot. Appropriate treatments (no incubation) were used as blanks. At the end of the incubation, 5 μl of 250 mM Indomethacin was added to stop the reaction. The blood was centrifuged at 6000×g for 5 min at 4 C to obtain serum. A 100 μl aliquot of serum was mixed with 400 μl methanol for protein precipitation. The supernatant was obtained by centrifuging at 6000×g for 5 min at 4 C and was assayed for TXB2 using an enzyme immunoassay kit according to the manufacturer's procedure. For a test compound, the results were expressed as percent inhibition of TXB2 production relative to control incubations containing DMSO vehicle. The data were analyzed by that a test compound at the indicated concentrations was changed log value and was applied simple linear regression. IC50 value was calculated by least squares method.

The subject of data set [1] is adjuvant arthritis in Lewis rats. Nature of the data set: Analgesic activity: effect on adjuvant arthritis in rats (Randall-Selitto pain threshold). It counts as in vivo, rat. Conditions: dose 3.2 mg/kg; ratio of mechanical pain threshold of treated vs non-treated arthritic rats, 2 hr after administration; ratio of 1.5 = effective dose.
The mark [2] stands for this setting: human whole blood, LPS 24 hr at 37 C, PGE2 production, read-out: COX-II IC50.
Setting [3] is: human whole blood, 1 hr at 37 C, TXB2 production, read-out: COX-I IC50.

T2 sequence (P23219 24-599): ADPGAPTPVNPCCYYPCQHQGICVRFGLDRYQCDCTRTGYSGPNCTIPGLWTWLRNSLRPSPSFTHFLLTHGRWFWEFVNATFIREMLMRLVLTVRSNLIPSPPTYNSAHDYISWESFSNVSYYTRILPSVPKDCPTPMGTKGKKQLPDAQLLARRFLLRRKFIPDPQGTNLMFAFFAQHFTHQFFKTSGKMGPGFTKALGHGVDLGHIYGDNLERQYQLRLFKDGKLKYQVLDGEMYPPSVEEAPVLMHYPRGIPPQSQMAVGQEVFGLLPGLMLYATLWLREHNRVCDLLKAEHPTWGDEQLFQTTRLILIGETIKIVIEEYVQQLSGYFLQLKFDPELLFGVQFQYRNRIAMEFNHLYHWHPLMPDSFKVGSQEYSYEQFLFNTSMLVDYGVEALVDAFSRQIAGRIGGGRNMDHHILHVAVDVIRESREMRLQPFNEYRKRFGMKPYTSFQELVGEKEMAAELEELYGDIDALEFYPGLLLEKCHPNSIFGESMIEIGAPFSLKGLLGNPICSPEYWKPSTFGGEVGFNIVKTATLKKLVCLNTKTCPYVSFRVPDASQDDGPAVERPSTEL

One may read the pIC50 as −log10 of the IC50, conventionally taken in molar units. As for `COc1ccc(-c2nc(C(F)(F)F)nn2-c2ccc(OC)cc2)cc1` [1(2), 1,5-bis(4-methoxyphenyl)-3-(trifluoromethyl)-1H-1,2,4-triazole], the figures for the pIC50 at COX-II (setting [2]), in the data set on platelet aggregation and at COX-I (setting [3]) were under 7.00, over 7.70 and over 8.00, respectively. The “The coefficient of analgesic” value in data set [1] was “>=1.5”.
Turning to `COc1ccc(-c2nc(OC)nn2-c2ccc(OC)cc2)cc1` [5(4), 3-Methoxy-1,5-bis(4-methoxyphenyl)-1H-1,2,4-triazole], the pIC50 in the data set with platelet aggregation is over 7.70. Moreover, the “The coefficient of analgesic” value in data set [1] is “>=1.5”.
For the compound `COc1ccc(-c2nc(SC)nn2-c2ccc(OC)cc2)cc1` [6(4), 1,5-bis(4-methoxyphenyl)-3-(methylthio)-1H-1,2,4-triazole], the pIC50 was under 7.00 on COX-II (setting [2]) and over 8.00 at COX-I (setting [3]).
For `COc1ccc(-c2nc(S(C)(=O)=O)nn2-c2ccc(OC)cc2)cc1` [6(6), 1,5-bis(4-methoxyphenyl)-3-(methylsulfonyl)-1H-1,2,4-triazole] the same measures were under 7.00 and over 8.00.
In the same order, the values of `COc1ccc(-c2nc(C(F)(F)F)nn2-c2ccc(OC)nc2)cc1` [12(2), 2-methoxy-5-[5-(4-methoxyphenyl)-3-(trifluoromethyl)-1H-1,2,4-triazol-1-yl]pyridine] are under 7.00 and over 8.00.
As a reminder, the melting point is the temperature, or range, at which the solid turns liquid. With `COc1ccc(-n2nc(OCC(F)(F)F)nc2-c2ccc(OC)nc2)cc1` [14-(3), 2-methoxy-5-(1-(4-methoxyphenyl)-3-(2,2,2-trifluoroethoxy)-1H-1,2,4-triazole-5-yl)pyridine], the melting point was 82 to 83 °C.
The compound `COc1ccc(-c2nc(OCC(F)(F)F)nn2-c2ccc(OC)nc2)cc1` [15-(4), 2-methoxy-5-(5-(4-methoxyphenyl)-3-(2,2,2-trifluoroethoxy)-1H-1,2,4-triazol-1-yl)pyridine] displayed a melting point of 63 to 64 °C. Besides, the pIC50 on COX-II (setting [2]) was under 7.00. Moreover, in the data set on platelet aggregation, the pIC50 was over 7.70. In addition, at COX-I (setting [3]), the pIC50 was over 8.00.
As to `COc1ccc(-n2nc(C(F)(F)F)nc2-c2ccc(OC)nc2)cc1` [Example 8, 2-methoxy-5-[1-(4-methoxyphenyl)-3-(trifluoromethyl)-1H-1,2,4-triazol-5-yl]pyridine], the pIC50 was under 7.00 on COX-II (setting [2]) and over 8.00 on COX-I (setting [3]).
`COc1ccc(-c2nc(OC(=O)N(C)C)nn2-c2ccc(OC)cc2)cc1` [Example 16, 1,5-bis(4-methoxyphenyl)-1H-1,2,4-triazol-3-yl dimethylcarbamate] gave a melting point of 121 to 123 °C. Moreover, the negative-log IC50 (pIC50) against COX-II is under 7.00. At COX-I, this compound had a negative-log IC50 (pIC50) of over 8.00.
As to `C#CCOc1nc(-c2ccc(OC)cc2)n(-c2ccc(OC)cc2)n1` [Example 17, 1,5-bis(4-methoxyphenyl)-3-(2-propynyloxy)-1H-1,2,4-triazole], the melting point was 81 to 82 °C. Moreover, the pIC50 on COX-II (setting [2]) was under 7.00. The negative-log IC50 (pIC50) at COX-I (setting [3]) was over 8.00.
For the compound `COc1ccc(-c2nc(OCc3cc(C)on3)nn2-c2ccc(OC)cc2)cc1` [Example 19, 1,5-bis(4-methoxyphenyl)-3-[(5-methyl-3-isoxazolyl)methoxy]-1H-1,2,4-triazole], the pIC50 on COX-II (setting [2]) is under 7.00; with platelet aggregation, over 7.70; on COX-I (setting [3]) it was over 8.00.
Take `COc1ccc(-c2nc(OCc3cscn3)nn2-c2ccc(OC)cc2)cc1` [Example 20, 1,5-bis(4-methoxyphenyl)-3-(1,3-thiazol-4-ylmethoxy)-1H-1,2,4-triazole]: the pIC50 is under 7.00 on COX-II (setting [2]) and over 8.00 at COX-I (setting [3]).
With `COc1ccc(-c2nc(OCC(=O)N(C)C)nn2-c2ccc(OC)cc2)cc1` [Example 21, 2-{[1,5-bis(4-methoxyphenyl)-1H-1,2,4-triazol-3-yl]oxy}-N,N-dimethylacetamide], the results for the negative-log IC50 (pIC50) on COX-II (setting [2]) and at COX-I (setting [3]) were under 7.00 and over 8.00, respectively.
In the same order, the values of `COc1ccc(-c2nc(OC(C)C)nn2-c2ccc(OC)cc2)cc1` [Example 23, 1,5-bis(4-methoxyphenyl)-3-(2-propoxy)-1H-1,2,4-triazole] are under 7.00 and over 8.00.
With `COc1ccc(-c2nc(OC3CCCCC3)nn2-c2ccc(OC)cc2)cc1` [Example 25, 1,5-bis(4-methoxyphenyl)-3-cyclohexyloxy-1H-1,2,4-triazole], the pIC50 on COX-II (setting [2]) was under 7.00; in the data set on platelet aggregation, over 7.70; on COX-I (setting [3]), over 8.00. Moreover, the “The coefficient of analgesic” value in data set [1] was “>=1.5”.
Regarding `COc1ccc(-c2nc(OCc3ccc(Cl)cc3)nn2-c2ccc(OC)cc2)cc1` [Example 26, 1,5-bis(4-methoxyphenyl)-3-(4-chlorophenylmethoxy)-1H-1,2,4-triazole], the negative logarithm of the IC50 (pIC50) on COX-II (setting [2]) was under 7.00; on COX-I (setting [3]) it was over 8.00.
